Paper PMC6177136, “Hybrid topoisomerase I and HDAC inhibitors as dual action anticancer agents” (PLoS ONE, 2018)

System: L-428
Test: Cytotoxicity assay (MTT, 72 h) L-428
Assay type: cell-based, Human
Conditions: Homo sapiens, L-428; 72 h, MTT assay; read-out: IC50 ± SD L-428
Experimental: Human tumor cells were seeded in 96-well cell culture plastic plates, allowed to attach, and exposed to scalar concentrations of the test compounds.

CC[C@@]1(O)C(=O)OCc2c1cc1n(c2=O)Cc2c-1nc1ccc(O)cc1c2C=NOCCCCCC(=O)NO [Compound 3d, 6-(10-hydroxycamptothecin-7-ylmethyleneaminooxy)-hexanoic acid hydroxyamide]
IC50: 430 ± 70 nM
